From PubChem BioAssay AID1963980 (Molecular Pharmacology Branch, DTP, NCI, 2024)

Test system: 475296-252-R-J1-PDC spheroid viability
Assay: Anticancer human tumor 475296-252-R-J1-PDC patient-derived rectal carcinoma cell line growth inhibition [PI3K]
Conditions: spheroids with HUVEC and MSC; for IC50: curve of first compound; for viability, T/C: stronger effect = lower value
Summary of the method: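 Stroma-containing spheroids: tumor line, pooled-donor HUVEC, hMSC. Treatments: targeted agents with PI3K inhibitors. Dosing: clinically relevant, half-log spacing, 10 microM ceiling without known Cmax. Read-out: cell viability.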

[1] = second compound 0.0316 µM, first compound 0.0316 µM
[2] = second compound 0.0316 µM, first compound 0.1 µM
[3] = second compound 0.0316 µM, first compound 0.316 µM
[4] = second compound 0.0316 µM, first compound 1 µM
[5] = second compound 0.0316 µM, first compound 3.16 µM
[6] = second compound 0.0316 µM, first compound 10 µM
[7] = second compound 0.1 µM, first compound 0.0316 µM
[8] = second compound 0.1 µM, first compound 0.1 µM
[9] = second compound 0.1 µM, first compound 0.316 µM
[10] = second compound 0.1 µM, first compound 1 µM
[11] = second compound 0.1 µM, first compound 3.16 µM
[12] = second compound 0.1 µM, first compound 10 µM
[13] = second compound 0.316 µM, first compound 0.0316 µM
[14] = second compound 0.316 µM, first compound 0.1 µM
[15] = second compound 0.316 µM, first compound 0.316 µM
[16] = second compound 0.316 µM, first compound 1 µM
[17] = second compound 0.316 µM, first compound 3.16 µM
[18] = second compound 0.316 µM, first compound 10 µM
[19] = second compound 1 µM, first compound 0.0316 µM
[20] = second compound 1 µM, first compound 0.1 µM
[21] = second compound 1 µM, first compound 0.316 µM
[22] = second compound 1 µM, first compound 1 µM
[23] = second compound 1 µM, first compound 3.16 µM
[24] = second compound 1 µM, first compound 10 µM
[25] = second compound 3.16 µM, first compound 0.0316 µM
[26] = second compound 3.16 µM, first compound 0.1 µM
[27] = second compound 3.16 µM, first compound 0.316 µM
[28] = second compound 3.16 µM, first compound 1 µM
[29] = second compound 3.16 µM, first compound 3.16 µM
[30] = second compound 3.16 µM, first compound 10 µM
[31] = second compound 10 µM, first compound 0.0316 µM
[32] = second compound 10 µM, first compound 0.1 µM
[33] = second compound 10 µM, first compound 0.316 µM
[34] = second compound 10 µM, first compound 1 µM
[35] = second compound 10 µM, first compound 3.16 µM
[36] = second compound 10 µM, first compound 10 µM
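Note: spheroids exposed to agents for seven days before readout.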

SMILES: CC(C)NCC(C(=O)N1CCN(c2ncnc3c2C(C)CC3O)CC1)c1ccc(Cl)cc1 (stereo not drawn) + CC(Nc1ncnc2nc[nH]c12)c1cc2cccc(Cl)c2c(=O)n1-c1ccccc1
- IC50 (second compound 0.0316 µM): > 10 µM
- IC50 (second compound 0.1 µM): > 10 µM
- IC50 (second compound 0.316 µM): > 10 µM
- IC50 (second compound 1 µM): > 10 µM
- IC50 (second compound 3.16 µM): > 10 µM
- IC50 (second compound 10 µM): > 10 µM
- viability, T/C [1]: 89.7%
- viability, T/C [2]: 104%
- viability, T/C [3]: 80.3%
- viability, T/C [4]: 77.3%
- viability, T/C [5]: 56.2%
- viability, T/C [6]: 65.5%
- viability, T/C [7]: 101%
- viability, T/C [8]: 93.2%
- viability, T/C [9]: 85.2%
- viability, T/C [10]: 73.3%
- viability, T/C [11]: 68.8%
- viability, T/C [12]: 63.2%
- viability, T/C [13]: 117%
- viability, T/C [14]: 96.4%
- viability, T/C [15]: 89.1%
- viability, T/C [16]: 76%
- viability, T/C [17]: 59.9%
- viability, T/C [18]: 66.3%
- viability, T/C [19]: 100%
- viability, T/C [20]: 103%
- viability, T/C [21]: 76%
- viability, T/C [22]: 61.8%
- viability, T/C [23]: 54.4%
- viability, T/C [24]: 65.5%
- viability, T/C [25]: 93.1%
- viability, T/C [26]: 85.5%
- viability, T/C [27]: 82.5%
- viability, T/C [28]: 76.1%
- viability, T/C [29]: 67.9%
- viability, T/C [30]: 50.7%
- viability, T/C [31]: 98%
- viability, T/C [32]: 84.1%
- viability, T/C [33]: 94.7%
- viability, T/C [34]: 67.1%
- viability, T/C [35]: 59.6%
- viability, T/C [36]: 56%

SMILES: CC1(C)CCC(CN2CCN(c3ccc(C(=O)NS(=O)(=O)c4ccc(NCC5CCOCC5)c([N+](=O)[O-])c4)c(Oc4cnc5[nH]ccc5c4)c3)CC2)=C(c2ccc(Cl)cc2)C1 + CC(Nc1ncnc2nc[nH]c12)c1cc2cccc(Cl)c2c(=O)n1-c1ccccc1
- IC50 (second compound 0.0316 µM): > 10 µM
- IC50 (second compound 0.1 µM): > 10 µM
- IC50 (second compound 0.316 µM): > 10 µM
- IC50 (second compound 1 µM): > 10 µM
- IC50 (second compound 3.16 µM): > 10 µM
- IC50 (second compound 10 µM): > 10 µM
- viability, T/C [1]: 102%
- viability, T/C [2]: 99.1%
- viability, T/C [3]: 91.2%
- viability, T/C [4]: 104%
- viability, T/C [5]: 107%
- viability, T/C [6]: 84.2%
- viability, T/C [7]: 107%
- viability, T/C [8]: 93.8%
- viability, T/C [9]: 98.8%
- viability, T/C [10]: 99.7%
- viability, T/C [11]: 106%
- viability, T/C [12]: 99%
- viability, T/C [13]: 120%
- viability, T/C [14]: 95.4%
- viability, T/C [15]: 97.9%
- viability, T/C [16]: 95%
- viability, T/C [17]: 86.4%
- viability, T/C [18]: 94.3%
- viability, T/C [19]: 86.6%
- viability, T/C [20]: 104%
- viability, T/C [21]: 98.9%
- viability, T/C [22]: 101%
- viability, T/C [23]: 91.8%
- viability, T/C [24]: 91.7%
- viability, T/C [25]: 93.2%
- viability, T/C [26]: 99.4%
- viability, T/C [27]: 95.1%
- viability, T/C [28]: 87.6%
- viability, T/C [29]: 96.9%
- viability, T/C [30]: 95.6%
- viability, T/C [31]: 78.5%
- viability, T/C [32]: 91.7%
- viability, T/C [33]: 92%
- viability, T/C [34]: 88.9%
- viability, T/C [35]: 90.6%
- viability, T/C [36]: 81.3%

SMILES: C[C@@H](NC(=O)c1ncnc(N)c1Cl)c1ncc(C(=O)Nc2cc(C(F)(F)F)c(Cl)cn2)s1 + CC(Nc1ncnc2nc[nH]c12)c1cc2cccc(Cl)c2c(=O)n1-c1ccccc1
- IC50 (second compound 0.0316 µM): > 10 µM
- IC50 (second compound 0.1 µM): > 10 µM
- IC50 (second compound 0.316 µM): > 10 µM
- IC50 (second compound 1 µM): > 10 µM
- IC50 (second compound 3.16 µM): > 10 µM
- IC50 (second compound 10 µM): > 10 µM
- viability, T/C [1]: 77.6%
- viability, T/C [2]: 90.2%
- viability, T/C [3]: 109%
- viability, T/C [4]: 114%
- viability, T/C [5]: 102%
- viability, T/C [6]: 91.5%
- viability, T/C [7]: 91%
- viability, T/C [8]: 92.5%
- viability, T/C [9]: 96.7%
- viability, T/C [10]: 109%
- viability, T/C [11]: 115%
- viability, T/C [12]: 92%
- viability, T/C [13]: 89.7%
- viability, T/C [14]: 86.4%
- viability, T/C [15]: 88.2%
- viability, T/C [16]: 96.7%
- viability, T/C [17]: 108%
- viability, T/C [18]: 92.2%
- viability, T/C [19]: 94.4%
- viability, T/C [20]: 90.5%
- viability, T/C [21]: 91%
- viability, T/C [22]: 112%
- viability, T/C [23]: 106%
- viability, T/C [24]: 75.5%
- viability, T/C [25]: 89.3%
- viability, T/C [26]: 94.8%
- viability, T/C [27]: 82%
- viability, T/C [28]: 102%
- viability, T/C [29]: 110%
- viability, T/C [30]: 67.4%
- viability, T/C [31]: 87.7%
- viability, T/C [32]: 84.8%
- viability, T/C [33]: 93.5%
- viability, T/C [34]: 92.8%
- viability, T/C [35]: 87.1%
- viability, T/C [36]: 63.4%

SMILES: Cn1ncnc1[C@H]1c2n[nH]c(=O)c3cc(F)cc(c23)N[C@@H]1c1ccc(F)cc1 + CC(Nc1ncnc2nc[nH]c12)c1cc2cccc(Cl)c2c(=O)n1-c1ccccc1
- IC50 (second compound 0.0316 µM): > 0.1 µM
- IC50 (second compound 0.1 µM): > 0.1 µM
- IC50 (second compound 0.316 µM): > 0.1 µM
- IC50 (second compound 1 µM): > 0.1 µM
- IC50 (second compound 3.16 µM): > 0.1 µM
- IC50 (second compound 10 µM): > 0.1 µM
- viability, T/C (second compound 0.0316 µM, first compound 0.000316 µM): 94.1%
- viability, T/C (second compound 0.0316 µM, first compound 0.001 µM): 94.3%
- viability, T/C (second compound 0.0316 µM, first compound 0.00316 µM): 87.4%
- viability, T/C (second compound 0.0316 µM, first compound 0.01 µM): 90.7%
- viability, T/C [1]: 107%
- viability, T/C [2]: 96.8%
- viability, T/C (second compound 0.1 µM, first compound 0.000316 µM): 96.5%
- viability, T/C (second compound 0.1 µM, first compound 0.001 µM): 87.5%
- viability, T/C (second compound 0.1 µM, first compound 0.00316 µM): 96.8%
- viability, T/C (second compound 0.1 µM, first compound 0.01 µM): 91.6%
- viability, T/C [7]: 95.7%
- viability, T/C [8]: 88.9%
- viability, T/C (second compound 0.316 µM, first compound 0.000316 µM): 91%
- viability, T/C (second compound 0.316 µM, first compound 0.001 µM): 85.8%
- viability, T/C (second compound 0.316 µM, first compound 0.00316 µM): 98.9%
- viability, T/C (second compound 0.316 µM, first compound 0.01 µM): 99.5%
- viability, T/C [13]: 102%
- viability, T/C [14]: 106%
- viability, T/C (second compound 1 µM, first compound 0.000316 µM): 85.8%
- viability, T/C (second compound 1 µM, first compound 0.001 µM): 103%
- viability, T/C (second compound 1 µM, first compound 0.00316 µM): 104%
- viability, T/C (second compound 1 µM, first compound 0.01 µM): 103%
- viability, T/C [19]: 112%
- viability, T/C [20]: 92.7%
- viability, T/C (second compound 3.16 µM, first compound 0.000316 µM): 89.7%
- viability, T/C (second compound 3.16 µM, first compound 0.001 µM): 86%
- viability, T/C (second compound 3.16 µM, first compound 0.00316 µM): 91%
- viability, T/C (second compound 3.16 µM, first compound 0.01 µM): 80.7%
- viability, T/C [25]: 90.1%
- viability, T/C [26]: 89.8%
- viability, T/C (second compound 10 µM, first compound 0.000316 µM): 97%
- viability, T/C (second compound 10 µM, first compound 0.001 µM): 85%
- viability, T/C (second compound 10 µM, first compound 0.00316 µM): 85.4%
- viability, T/C (second compound 10 µM, first compound 0.01 µM): 90.7%
- viability, T/C [31]: 95.2%
- viability, T/C [32]: 83.7%
